Assay results taken from the supplement of paper PMC10307832.

Tests used:
Assay in all cases: relative viability (nuclei count vs DMSO), 5 days (fraction); higher = more cells survive
Metformin + Navitoclax = compound: CN(C)C(=N)NC(=N)N [Metformin] + CC1(C)CCC(c2ccc(Cl)cc2)=C(CN2CCN(c3ccc(C(=O)NS(=O)(=O)c4ccc(N[C@H](CCN5CCOCC5)CSc5ccccc5)c(S(=O)(=O)C(F)(F)F)c4)cc3)CC2)C1 [Navitoclax] (partner 0.5 µM)
In short: (§1)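 Relative viability equals treated-well nuclei counts divided by vehicle-well nuclei counts. Counts came from 4× images of lung cancer cell lines grown in 1536-well plates for 5 days after pin-tool dosing on the day after seeding. Dosing used one drug alone or a fixed anchor-drug dose plus five library-drug doses (not always all listed) in √10 steps, and values are medians of duplicate plates.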

Metformin + Phenformin = compound: CN(C)C(=N)NC(=N)N [Metformin] + N=C(N)NC(=N)NCCc1ccccc1 [Phenformin] (partner 250 µM)
In short: as §1

Apatinib + Luminespib = compound: N#CC1(c2ccc(NC(=O)c3cccnc3NCc3ccncc3)cc2)CCCC1 [Apatinib] + CCNC(=O)c1noc(-c2cc(C(C)C)c(O)cc2O)c1-c1ccc(CN2CCOCC2)cc1 [Luminespib] (partner 0.01 µM)
In short: as §1

Apatinib + Alpelisib = compound: N#CC1(c2ccc(NC(=O)c3cccnc3NCc3ccncc3)cc2)CCCC1 [Apatinib] + Cc1nc(NC(=O)N2CCC[C@H]2C(N)=O)sc1-c1ccnc(C(C)(C)C(F)(F)F)c1 [Alpelisib] (partner 2 µM)
In short: as §1

Row | Cell Line | relative viability (Metformin + Navitoclax; first compound 10 µM) | relative viability (Metformin + Navitoclax; first compound 31.62 µM) | relative viability (Metformin + Navitoclax; first compound 100 µM) | relative viability (Metformin + Navitoclax; first compound 316.23 µM) | relative viability (Metformin + Navitoclax; first compound 1000 µM) | relative viability (Metformin + Phenformin; first compound 31.62 µM) | relative viability (Metformin + Phenformin; first compound 100 µM) | relative viability (Metformin + Phenformin; first compound 316.23 µM) | relative viability (Metformin + Phenformin; first compound 1000 µM) | relative viability (Apatinib + Luminespib; first compound 0.08 µM) | relative viability (Apatinib + Luminespib; first compound 0.253 µM) | relative viability (Apatinib + Luminespib; first compound 0.8 µM) | relative viability (Apatinib + Luminespib; first compound 2.53 µM) | relative viability (Apatinib + Luminespib; first compound 8 µM) | relative viability (Apatinib + Alpelisib; first compound 0.08 µM) | relative viability (Apatinib + Alpelisib; first compound 0.253 µM) | relative viability (Apatinib + Alpelisib; first compound 0.8 µM) | relative viability (Apatinib + Alpelisib; first compound 2.53 µM) | relative viability (Apatinib + Alpelisib; first compound 8 µM) | relative viability (Metformin + Phenformin; first compound 10 µM)
1 | HCC-15 | 0.686 | 0.726 | 0.719 | 0.618 | 0.699 | 0.495 | 0.464 | 0.426 | 0.491 | 0.364 | 0.241 | 0.302 | 0.317 | 0.316 | 0.911 | 0.904 | 0.839 | 0.891 | 0.705 | –
2 | NCI-H2085 | 1.08 | 1.12 | 1.05 | 1.07 | 1.11 | 0.729 | 0.722 | 0.673 | 0.864 | 0.396 | 0.527 | 0.429 | 0.421 | 0.361 | 1.05 | 0.931 | 0.931 | 0.858 | 0.792 | 0.693
3 | LCLC-97TM1 | 0.44 | 0.339 | 0.547 | 0.276 | 0.486 | 0.43 | 0.332 | 0.398 | 0.477 | 0.761 | 0.833 | 0.863 | 0.605 | 0.297 | 0.281 | 0.21 | 0.256 | 0.206 | 0.154 | 0.478
4 | NCI-H441 | 0.408 | – | 0.55 | – | 0.486 | 0.707 | 0.706 | 0.586 | 0.803 | 0.261 | 0.296 | 0.253 | 0.406 | 0.308 | 0.872 | 0.82 | 0.752 | 0.726 | 0.421 | –
5 | NCI-H1651 | 1.14 | 1.38 | 1.27 | 1.21 | 1.46 | 0.312 | 0.371 | 0.327 | 0.373 | 0.981 | 1.12 | 0.855 | 0.579 | 0.652 | 1.03 | 1.11 | 0.786 | 0.851 | 0.83 | 0.42
6 | NCI-H1944 | 0.968 | 1.04 | 1.04 | 0.966 | 1.07 | 0.2 | 0.19 | 0.169 | 0.209 | 0.701 | 0.773 | 0.667 | 0.644 | 0.494 | 0.868 | 0.905 | 0.74 | 0.798 | 0.866 | 0.205
